Test results: publication PMC9144902, “Metal(II) Complexes of the Fluoroquinolone Fleroxacin: Synthesis, Characterization and Biological Profile” (Pharmaceutics, 2022)

Assays:
CT DNA = experiment: Study of the DNA-interaction by cyclic voltammetry; assay type: binding, calf; settings: for Epa(f), anodic potential / Epc(f), cathodic potential / Epa(b), anodic potential / Epc(b), cathodic potential: M(II)/M(I), 1:2 DMSO/buffer; for Epa(f), anodic potential / Epc(f), cathodic potential: absence of CT DNA; for Epa(b), anodic potential / Epc(b), cathodic potential: presence of CT DNA; for Kr/Kox, ratio of equilibrium DNA-binding constants (reduced/oxidized form): eq. S6
Protocol: Cyclic voltammetry was used to study the interaction of the complexes with CT DNA. An intercalative interaction will induce a positive shift for the electrochemical potential(s) of metal oxidation/reduction, whereas, in the case of electrostatic interaction, a negative shift in the potential(s) may occur. The cyclic voltammograms of the complexes in a 1:2 DMSO:buffer solution (0.33 mM) were recorded in the absence and presence of the CT DNA solution (Figure S13). The predominant electrochemical feature for all complexes is a positive shift in the potential in the presence of CT DNA (ΔEpc/a = (–30)–(+127) mV). Consequently, the intercalative nature of the interaction of the complexes with DNA can be inferred from the presented data.
In order to evaluate further the redox behavior of the complexes, the corresponding equilibrium constants were calculated by determining the ratio Kr/Kox in accordance to Equation (S6), where Kox and Kr are the DNA-binding constants for the oxidized and reduced form, respectively, of the metal ions. For all complexes, the Kr/Kox ratio is close to or above 1 (Table 7), showing the selective binding of DNA to the […] form of the complexes. […]
S3.3 Study of the DNA –interaction by cyclic vol ta mmetry
Cyclic voltammetr y can be also used in order to calculate the corresponding equilibrium constant for the redox process. The ratio of the DNA–binding constants for the reduced (K r) and oxidized forms (Kox) of t he complex es (Kr/Kox) w as calculat ed according t o eq. S6:
Δ = = 0.059 × lo gEE E K oxoo o (eq. S6) […]
where Eo and Eo are the formal potentials of M(II)/M(I) redox couple in the fully bound and […]
free complexes, respectivel y. Kox and Kr are the binding constants for the binding of the oxidized and reduced species to DNA, respectivel y [S8] . […]

EB–DNA adduct (CT DNA) = experiment: Competitive study with EB (EB–DNA fluorescence quenching); assay type: binding, calf; settings: for Ksv, Stern–Volmer constant: EB–DNA adduct; for ΔI/Io, percentage of EB–DNA fluorescence quenching: [EB] = 20 μM, [DNA] = 26 μM, λexc 540 nm, λem 592 nm; for EB–DNA relative fluorescence emission intensity, % of the initial (I/Io): λemission = 592 nm, final value (up to), Figure S14; for kq, EB–DNA quenching constant: τo = 23 ns

CN1CCN(c2c(F)cc3c(=O)c(C(=O)[O-])cn(CCF)c3c2F)CC1.CN1CCN(c2c(F)cc3c(=O)c(C(=O)[O-])cn(CCF)c3c2F)CC1.CO.CO.[Co+2] [complex 4, [Co(flrx)2(MeOH)2]]
Epa(f), anodic potential (CT DNA): −483 mV
Epc(f), cathodic potential (CT DNA): −724 mV
Epa(b), anodic potential (CT DNA): −455 mV
Epc(b), cathodic potential (CT DNA): −735 mV
Kr/Kox, ratio of equilibrium DNA-binding constants (reduced/oxidized form) (CT DNA): 1.15
Ksv, Stern–Volmer constant (EB–DNA adduct (CT DNA)): 1.36(±0.03) × 10^5 M^–1
ΔI/Io, percentage of EB–DNA fluorescence quenching (EB–DNA adduct (CT DNA)): 64.1%
EB–DNA relative fluorescence emission intensity, % of the initial (I/Io) (EB–DNA adduct (CT DNA)): 35.9%
kq, EB–DNA quenching constant (EB–DNA adduct (CT DNA)): 5.93(±0.14) × 10^12 M^−1s^−1

CN1CCN(c2c(F)cc3c(=O)c(C(=O)[O-])cn(CCF)c3c2F)CC1.CN1CCN(c2c(F)cc3c(=O)c(C(=O)[O-])cn(CCF)c3c2F)CC1.[Co+2].c1ccc(-c2ccccn2)nc1 [complex 15, [Co(flrx)2(bipy)]]
Epa(f), anodic potential (CT DNA): −533 mV
Epc(f), cathodic potential (CT DNA): −701 mV
Epa(b), anodic potential (CT DNA): −541 mV
Epc(b), cathodic potential (CT DNA): −695 mV
Kr/Kox, ratio of equilibrium DNA-binding constants (reduced/oxidized form) (CT DNA): 0.98
Ksv, Stern–Volmer constant (EB–DNA adduct (CT DNA)): 4.69(±0.09) × 10^5 M^–1
ΔI/Io, percentage of EB–DNA fluorescence quenching (EB–DNA adduct (CT DNA)): 80.4%
EB–DNA relative fluorescence emission intensity, % of the initial (I/Io) (EB–DNA adduct (CT DNA)): 19.6%
kq, EB–DNA quenching constant (EB–DNA adduct (CT DNA)): 2.04(±0.04) × 10^13 M^−1s^−1

CN1CCN(c2c(F)cc3c(=O)c(C(=O)[O-])cn(CCF)c3c2F)CC1.CN1CCN(c2c(F)cc3c(=O)c(C(=O)[O-])cn(CCF)c3c2F)CC1.[Mn+2].c1ccc(Nc2ccccn2)nc1 [complex 10, [Mn(flrx)2(bipyam)]]
Epa(f), anodic potential (CT DNA): −495 mV
Epc(f), cathodic potential (CT DNA): −706 mV
Epa(b), anodic potential (CT DNA): −508 mV
Epc(b), cathodic potential (CT DNA): −695 mV
Kr/Kox, ratio of equilibrium DNA-binding constants (reduced/oxidized form) (CT DNA): 0.98
Ksv, Stern–Volmer constant (EB–DNA adduct (CT DNA)): 5.92(±0.14) × 10^5 M^–1
ΔI/Io, percentage of EB–DNA fluorescence quenching (EB–DNA adduct (CT DNA)): 81.1%
EB–DNA relative fluorescence emission intensity, % of the initial (I/Io) (EB–DNA adduct (CT DNA)): 18.9%
kq, EB–DNA quenching constant (EB–DNA adduct (CT DNA)): 2.57(±0.06) × 10^13 M^−1s^−1

CN1CCN(c2c(F)cc3c(=O)c(C(=O)[O-])cn(CCF)c3c2F)CC1.CN1CCN(c2c(F)cc3c(=O)c(C(=O)[O-])cn(CCF)c3c2F)CC1.[Mn+2].c1cnc2c(c1)ccc1cccnc12 [complex 11, [Mn(flrx)2(phen)]]
Epa(f), anodic potential (CT DNA): −501 mV
Epc(f), cathodic potential (CT DNA): −706 mV
Epa(b), anodic potential (CT DNA): −499 mV
Epc(b), cathodic potential (CT DNA): −700 mV
Kr/Kox, ratio of equilibrium DNA-binding constants (reduced/oxidized form) (CT DNA): 1.07
Ksv, Stern–Volmer constant (EB–DNA adduct (CT DNA)): 1.83(±0.03) × 10^5 M^–1
ΔI/Io, percentage of EB–DNA fluorescence quenching (EB–DNA adduct (CT DNA)): 76.7%
EB–DNA relative fluorescence emission intensity, % of the initial (I/Io) (EB–DNA adduct (CT DNA)): 23.3%
kq, EB–DNA quenching constant (EB–DNA adduct (CT DNA)): 7.94(±0.14) × 10^12 M^−1s^−1

CN1CCN(c2c(F)cc3c(=O)c(C(=O)[O-])cn(CCF)c3c2F)CC1.CN1CCN(c2c(F)cc3c(=O)c(C(=O)[O-])cn(CCF)c3c2F)CC1.[Cu+2] [complex 1, [Cu(flrx)2]]
Epa(f), anodic potential (CT DNA): −504 mV
Epc(f), cathodic potential (CT DNA): −725 mV
Epa(b), anodic potential (CT DNA): −462 mV
Epc(b), cathodic potential (CT DNA): −735 mV
Kr/Kox, ratio of equilibrium DNA-binding constants (reduced/oxidized form) (CT DNA): 1.31
Ksv, Stern–Volmer constant (EB–DNA adduct (CT DNA)): 2.18(±0.06) × 10^5 M^–1
ΔI/Io, percentage of EB–DNA fluorescence quenching (EB–DNA adduct (CT DNA)): 62.2%
EB–DNA relative fluorescence emission intensity, % of the initial (I/Io) (EB–DNA adduct (CT DNA)): 37.8%
kq, EB–DNA quenching constant (EB–DNA adduct (CT DNA)): 9.47(±0.03) × 10^12 M^−1s^−1
